#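 Each compound was tested at five concentrations against cells in 96-well plates for 48 hours. TGI marks complete inhibition of growth.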
# Experiments:
# Assay in all cases: NCI-60 cell line screen, 48 h
# UACC-62 melanoma = system: UACC-62 melanoma
# HOP-92 NSCLC = system: HOP-92 NSCLC
# MALME-3M melanoma = system: MALME-3M melanoma
# A498 renal = system: A498 renal
# NCI-H460 lung = system: NCI-H460 lung
# M14 melanoma = system: M14 melanoma
# OVCAR-4 ovarian = system: OVCAR-4 ovarian
# HL-60(TB) leukemia = system: HL-60(TB) leukemia
# HT29 colon = system: HT29 colon
# KM20L2 colon = system: KM20L2 colon
# OVCAR-3 ovarian = system: OVCAR-3 ovarian
# DMS 114 small cell lung = system: DMS 114 small cell lung
# UO-31 renal = system: UO-31 renal
# KM12 colon = system: KM12 colon
# SF-295 CNS = system: SF-295 CNS
# RPMI-8226 leukemia = system: RPMI-8226 leukemia
# SNB-19 CNS = system: SNB-19 CNS
# NCI-H23 lung = system: NCI-H23 lung
# SK-MEL-28 melanoma = system: SK-MEL-28 melanoma
# SF-539 CNS = system: SF-539 CNS
# SK-MEL-2 melanoma = system: SK-MEL-2 melanoma
# OVCAR-5 ovarian = system: OVCAR-5 ovarian
# SNB-78 CNS = system: SNB-78 CNS
# IGROV1 ovarian = system: IGROV1 ovarian
# MOLT-4 leukemia = system: MOLT-4 leukemia
# M19-MEL melanoma = system: M19-MEL melanoma
# SK-OV-3 ovarian = system: SK-OV-3 ovarian
# LXFL 529 NSCLC = system: LXFL 529 NSCLC
# HCT-116 colon = system: HCT-116 colon
# SF-268 CNS = system: SF-268 CNS
# U251 CNS = system: U251 CNS
# UACC-257 melanoma = system: UACC-257 melanoma
# SNB-75 CNS = system: SNB-75 CNS
# ACHN renal = system: ACHN renal
# RXF 393 renal = system: RXF 393 renal
# NCI-H522 lung = system: NCI-H522 lung
# K-562 leukemia = system: K-562 leukemia
# CCRF-CEM leukemia = system: CCRF-CEM leukemia
# COLO 205 colon = system: COLO 205 colon
# SR leukemia = system: SR leukemia
# HOP-62 NSCLC = system: HOP-62 NSCLC
# SW-620 colon = system: SW-620 colon
# DMS 273 small cell lung = system: DMS 273 small cell lung
# EKVX NSCLC = system: EKVX NSCLC
# SK-MEL-5 melanoma = system: SK-MEL-5 melanoma
# CAKI-1 renal = system: CAKI-1 renal
# NCI-H226 lung = system: NCI-H226 lung
# SN12C renal = system: SN12C renal
# OVCAR-8 ovarian = system: OVCAR-8 ovarian
# 786-0 renal = system: 786-0 renal
# LOX IMVI melanoma = system: LOX IMVI melanoma
# HCC-2998 colon = system: HCC-2998 colon
# A549 NSCLC = system: A549 NSCLC
# DLD-1 colon = system: DLD-1 colon
# HOP-18 NSCLC = system: HOP-18 NSCLC
# TK-10 renal = system: TK-10 renal
# HCT-15 colon = system: HCT-15 colon
structure (smiles),measurement,setting,value
COC1CCC(CO)OO1 (stereo not drawn),TGI,UACC-62 melanoma,> 100 µM
same,TGI,HOP-92 NSCLC,> 100 µM
same,TGI,MALME-3M melanoma,> 100 µM
same,TGI,A498 renal,72.2 µM
same,TGI,NCI-H460 lung,> 100 µM
same,TGI,M14 melanoma,> 100 µM
same,TGI,OVCAR-4 ovarian,> 100 µM
same,TGI,HL-60(TB) leukemia,58 µM
same,TGI,HT29 colon,> 100 µM
same,TGI,KM20L2 colon,> 100 µM
same,TGI,OVCAR-3 ovarian,80.5 µM
same,TGI,DMS 114 small cell lung,36.6 µM
same,TGI,UO-31 renal,> 100 µM
same,TGI,KM12 colon,> 100 µM
same,TGI,SF-295 CNS,73.6 µM
same,TGI,RPMI-8226 leukemia,93.1 µM
same,TGI,SNB-19 CNS,> 100 µM
same,TGI,NCI-H23 lung,> 100 µM
same,TGI,SK-MEL-28 melanoma,> 100 µM
same,TGI,SF-539 CNS,> 100 µM
same,TGI,SK-MEL-2 melanoma,> 100 µM
same,TGI,OVCAR-5 ovarian,> 100 µM
same,TGI,SNB-78 CNS,66.9 µM
same,TGI,IGROV1 ovarian,75.8 µM
same,TGI,MOLT-4 leukemia,> 100 µM
same,TGI,M19-MEL melanoma,> 100 µM
same,TGI,SK-OV-3 ovarian,> 100 µM
same,TGI,LXFL 529 NSCLC,> 100 µM
same,TGI,HCT-116 colon,> 100 µM
same,TGI,SF-268 CNS,> 100 µM
same,TGI,U251 CNS,> 100 µM
same,TGI,UACC-257 melanoma,> 100 µM
same,TGI,SNB-75 CNS,> 100 µM
same,TGI,ACHN renal,> 100 µM
same,TGI,RXF 393 renal,> 100 µM
same,TGI,NCI-H522 lung,27.4 µM
same,TGI,K-562 leukemia,> 100 µM
same,TGI,CCRF-CEM leukemia,> 100 µM
same,TGI,COLO 205 colon,> 100 µM
same,TGI,SR leukemia,> 100 µM
same,TGI,HOP-62 NSCLC,> 100 µM
Cc1cc(O)c2c(c1)OC1(C)CCC3C(C)(C)CCCC34COC2C14 (stereo not drawn),TGI,UACC-62 melanoma,34.8 µM
same,TGI,MALME-3M melanoma,26.3 µM
same,TGI,A498 renal,26 µM
same,TGI,NCI-H460 lung,30.6 µM
same,TGI,M14 melanoma,29.1 µM
same,TGI,OVCAR-4 ovarian,33.5 µM
same,TGI,HL-60(TB) leukemia,63.7 µM
same,TGI,SW-620 colon,30 µM
same,TGI,KM20L2 colon,33.3 µM
same,TGI,OVCAR-3 ovarian,26.8 µM
same,TGI,DMS 114 small cell lung,27.1 µM
same,TGI,DMS 273 small cell lung,27.1 µM
same,TGI,UO-31 renal,33.2 µM
same,TGI,KM12 colon,35.3 µM
same,TGI,EKVX NSCLC,24.8 µM
same,TGI,SF-295 CNS,28.3 µM
same,TGI,SNB-19 CNS,32.7 µM
same,TGI,NCI-H23 lung,35.9 µM
same,TGI,SF-539 CNS,23.8 µM
same,TGI,OVCAR-5 ovarian,29.5 µM
same,TGI,IGROV1 ovarian,38.7 µM
same,TGI,MOLT-4 leukemia,27.4 µM
same,TGI,SK-MEL-5 melanoma,27.5 µM
same,TGI,LXFL 529 NSCLC,28.2 µM
same,TGI,HCT-116 colon,27.3 µM
same,TGI,SF-268 CNS,30.7 µM
same,TGI,CAKI-1 renal,32.9 µM
same,TGI,NCI-H226 lung,31 µM
same,TGI,UACC-257 melanoma,28.8 µM
same,TGI,ACHN renal,25.8 µM
same,TGI,NCI-H522 lung,34.6 µM
same,TGI,SN12C renal,30.8 µM
same,TGI,K-562 leukemia,46.3 µM
same,TGI,CCRF-CEM leukemia,42.7 µM
same,TGI,OVCAR-8 ovarian,30.9 µM
same,TGI,786-0 renal,30.7 µM
same,TGI,COLO 205 colon,29.9 µM
same,TGI,LOX IMVI melanoma,27.3 µM
same,TGI,HCC-2998 colon,28.1 µM
same,TGI,A549 NSCLC,28.6 µM
same,TGI,HOP-62 NSCLC,28.5 µM
same,TGI,DLD-1 colon,36.8 µM
O=C(C#Cc1ccccc1)NC/C=C/c1ccccc1,TGI,UACC-62 melanoma,> 100 µM
same,TGI,HOP-92 NSCLC,57.2 µM
same,TGI,MALME-3M melanoma,> 100 µM
same,TGI,A498 renal,> 100 µM
same,TGI,NCI-H460 lung,> 100 µM
same,TGI,M14 melanoma,> 100 µM
same,TGI,OVCAR-4 ovarian,> 100 µM
same,TGI,HL-60(TB) leukemia,58.1 µM
same,TGI,HT29 colon,> 100 µM
same,TGI,SW-620 colon,> 100 µM
same,TGI,KM20L2 colon,> 100 µM
same,TGI,OVCAR-3 ovarian,> 100 µM
same,TGI,DMS 114 small cell lung,> 100 µM
same,TGI,UO-31 renal,> 100 µM
same,TGI,KM12 colon,> 100 µM
same,TGI,EKVX NSCLC,> 100 µM
same,TGI,SF-295 CNS,> 100 µM
same,TGI,SNB-19 CNS,79.9 µM
same,TGI,NCI-H23 lung,> 100 µM
same,TGI,SK-MEL-28 melanoma,> 100 µM
same,TGI,SF-539 CNS,> 100 µM
same,TGI,SK-MEL-2 melanoma,97.4 µM
same,TGI,HOP-18 NSCLC,> 100 µM
same,TGI,OVCAR-5 ovarian,> 100 µM
same,TGI,SNB-78 CNS,84.1 µM
same,TGI,IGROV1 ovarian,> 100 µM
same,TGI,MOLT-4 leukemia,> 100 µM
same,TGI,M19-MEL melanoma,> 100 µM
same,TGI,SK-OV-3 ovarian,56.6 µM
same,TGI,SK-MEL-5 melanoma,> 100 µM
same,TGI,LXFL 529 NSCLC,> 100 µM
same,TGI,HCT-116 colon,> 100 µM
same,TGI,TK-10 renal,> 100 µM
same,TGI,SF-268 CNS,> 100 µM
same,TGI,U251 CNS,> 100 µM
same,TGI,CAKI-1 renal,> 100 µM
same,TGI,NCI-H226 lung,93.8 µM
same,TGI,UACC-257 melanoma,> 100 µM
same,TGI,SNB-75 CNS,45.8 µM
same,TGI,ACHN renal,> 100 µM
same,TGI,RXF 393 renal,37 µM
same,TGI,HCT-15 colon,> 100 µM
same,TGI,NCI-H522 lung,96.6 µM
same,TGI,SN12C renal,> 100 µM
same,TGI,K-562 leukemia,> 100 µM
same,TGI,CCRF-CEM leukemia,> 100 µM
same,TGI,OVCAR-8 ovarian,> 100 µM
same,TGI,786-0 renal,56.2 µM
same,TGI,COLO 205 colon,> 100 µM
same,TGI,LOX IMVI melanoma,> 100 µM
same,TGI,HCC-2998 colon,99.2 µM
same,TGI,SR leukemia,> 100 µM
same,TGI,A549 NSCLC,> 100 µM
same,TGI,HOP-62 NSCLC,52.5 µM
same,TGI,DLD-1 colon,> 100 µM

# Reference: PubChem BioAssay (NCI)
